Test results published in patent publication US20180235919A1, “System and Method For Treating Atheroma Formation” (Lonza Inc., priority 2015, published 2018).

Legend:
[1] = tested on: mouse model of atherosclerosis; test: En face analysis of thoracic aorta lesions (Sudan IV staining); format: in vivo; settings: for amount of plaque present in the thoracic aorta (en face analysis): after 12 weeks of treatment, ApoE KO/AAV-CETP mice on Western diet (FIG. 5)
Description: (§1) ApoE KO mice, male and 6 to 7 weeks of age, were transfected in vivo with AAV-CETP. Two weeks after infection, CETP expression in plasma was verified using a commercially available ELISA kit, and the mice were placed on a Western (high-fat) diet.
(§2) The mice were sorted into several groups based on matching initial total cholesterol and verified CETP expression: 1 control group receiving a dose of dH2O. 2—a group receiving a high dose of L-carnitine (35.2 mg/mL dH2O). 3—a group receiving a low dose of L-carnitine (8.7mg/mL dH2O). 4—a group receiving a high dose of L-carnitine (35.2 mg/mL dH2O) and a dose of methimazaole (1.5 mg/mL dH2O). 5—a group receiving a dose of methimazaole (1.5 mg/mL dH2O).
(§3) Dosing began when the mice reached 10 weeks of age and continued for 12 weeks. Drugs were administered once daily by oral gavage. The animals' body weights were measured weekly.
The effect of treatment with L-carnitine and/or methimazole on atherosclerosis progression was determined by measuring the amount of lesions present in the thoracic aorta and the sinotubular junction of the aortic root. After 12 weeks of treatment, the mice were sacrificed, and their tissues were removed for analysis. The En-face thoracic aortas were isolated and prepared for analysis by trimming present fat and fixing the aortas in formalin for 48-72 hours. For morphometric en face analysis, the aortas were laid out, pinned on black matrix, and stained with the lipid binding dye Sudan IV to determine the percentage of the thoracic aorta with lesion present. A Nikon computerized image analysis system was used to image the vessels for surface involvement.

[2] = Plasma L-carnitine concentration by LC-MS; format: in vivo, mouse; settings: oral gavage once daily, ApoE KO/AAV-CETP mice (FIG. 3)
Description: as §1, §2, §3
The concentrations of L-carnitine and TMAO in the plasma were measured using a liquid chromatography mass spectrometry method. A deuterium labeled L-carnitine stock standard was prepared using the weigh by difference technique. About 5 mg of d9-L-carnitine from Cambridge Isotope Laboratories were added to a 10 mL volumetric flask via a weighing funnel or weighing paper, and water:methanol=1:1 was used to dissolve the sample. A deuterium labeled TMAO stock standard was prepared by accurately weighing 25±2 mg of d9-trimethylamine N-oxide reference standard, transferring the sample into a 25 mL volumetric flask, adding about 15 mL of water:methanol=1:1, and vortexing until dissolved. The flask was then filled to volume with water:methanol=1:1
Stock standards of deuterium labeled L-carnitine and deuterium labeled TMAO were prepared using 5 mg/10 mL water/methanol of d9-L-carnitine and 25 mg/25 mL water/methanol of d9-TMAO. These stock standards were used to prepare an internal standard by adding 200 μL of d9-L-carnitine stock standard and 10 μL of d9-TMAO into a 50 mL volumetric flask, adding acetonitrile to volume, and mixing well.
Calibration standards were then prepared. […]

[3] = Plasma TMAO concentration by LC-MS; format: in vivo, mouse; settings: high dose of L-carnitine (352 mg/kg), oral gavage once daily, ApoE KO/AAV-CETP mice (FIG. 4)
Description: as §1, §2, §3
The concentrations of L-carnitine and TMAO in the plasma were measured using a liquid chromatography mass spectrometry method. A deuterium labeled L-carnitine stock standard was prepared using the weigh by difference technique. About 5 mg of d9-L-carnitine from Cambridge Isotope Laboratories were added to a 10 mL volumetric flask via a weighing funnel or weighing paper, and water:methanol=1:1 was used to dissolve the sample. […]

[4] = tested on: mouse model of atherosclerosis; test: Plaque in the aortic root (aortic sinus sections, hematoxylin and eosin); format: in vivo; settings: after 12 weeks of treatment, ApoE KO/AAV-CETP mice on Western diet (FIG. 7)
Description: as §1, §2, §3

C[N+](C)(C)[O-] [TMAO, trimethylamine N-oxide]
percent lesion area of the thoracic aorta ([1]; TMAO levels higher than 0.1 ppm versus TMAO levels lower than 0.1 ppm (FIG. 6)): significant decrease

C[N+](C)(C)C[C@H](O)CC(=O)[O-] [L-carnitine]
concentration of L-carnitine in the plasma compared to the control vehicle ([2]; high dose of L-carnitine (352 mg/kg)): significant increase | concentration of L-carnitine in the plasma compared to the control vehicle ([2]; low dose of L-carnitine (87 mg/kg)): significant increase | concentration of TMAO compared to the vehicle control [3]: statistically significant increase | amount of plaque present in the thoracic aorta (en face analysis) [1]: no significant changes | amount of plaque in the aortic root [4]: small but significant reductions

Cn1cc[nH]c1=S [methimazole]
concentration of L-carnitine in comparison to the control vehicle ([2]; methimazole (15 mg/kg)): significant decrease | amount of plaque present in the thoracic aorta (en face analysis) [1]: no significant changes | amount of plaque in the aortic root [4]: small but significant reductions
